Read-outs that look alike come from different tables or passages of the source. Blank lines part the entries; values can stand above or below the compound they belong to.
Legend:
[1] = human, in vivo
Experimental: 40 mg of PCS6422 is administered to the subjects on day 1. Subsequently, 75 mg of capecitabine is administered to the subjects daily (Cohort 1) or twice daily (Cohort 2A, morning and night) on days 2-8 followed by 6 days of a drug-free period (days 9-14).
Blood samples for pharmacokinetic (PK) analysis of PCS6422 and its major metabolite, 5-acetyluracil, are drawn in cycle 1 on day 1 at 0 (pre-dose), 1, 2, 3, 5, 7, 9, and 24 hours post PCS6422 administration. On the first day of capecitabine treatment (Cycle 1, day 2), blood samples for PK analysis of capecitabine, 5-fluorouracil (5-FU), and the quantifiable main metabolites, α-fluoro-β-alanine (FBAL), 5′-deoxy-5-fluorocytidine (5′-DFCR), and doxifluridine (5′-DFUR) are obtained at the following time points relative to administration of the first dose of capecitabine (dose 1): 0 (pre-dose/trough), 0.5, 1, 2, 3, 5, 7, and at 9 hours. In cycle 1 on Day 8, blood samples are obtained at the following time points relative to administration of the dose of capecitabine (dose 7 of cycle 1): 0 (pre-dose/trough), 0.5, 1, 2, 3, 5, 7, 9, 24, 30, and 48 hours post-capecitabine dose. A capecitabine blood sample is also drawn on cycle 2, day 1, prior to the dose of PCS6422.
Blood samples are also drawn for the analysis of DPD activity using uracil and dihydrouracil concentrations at screening and at the following times during Cycle 1: Day 1, Day 2, Day 8, Day 9, and Day 10. A blood sample is also drawn on Cycle 2, day 1 prior to the dose of PCS6422. All blood samples for analysis of uracil and dihydrouracil concentrations are taken prior a subject's meal, if possible. Actual sample time is recorded. Validated analytical methods are used to determine the concentrations of PCS6422, 5-acetyluracil, capecitabine, 5-FU, FBAL, 5′-DFCR, and 5′-DFUR, uracil, and/or dihydrouracil in plasma.

[2] = target: T1, dihydropyrimidine dehydrogenase (DPD) (Homo sapiens, UniProt Q12882); conditions: cited from earlier work
T1 sequence (Q12882 4-1025): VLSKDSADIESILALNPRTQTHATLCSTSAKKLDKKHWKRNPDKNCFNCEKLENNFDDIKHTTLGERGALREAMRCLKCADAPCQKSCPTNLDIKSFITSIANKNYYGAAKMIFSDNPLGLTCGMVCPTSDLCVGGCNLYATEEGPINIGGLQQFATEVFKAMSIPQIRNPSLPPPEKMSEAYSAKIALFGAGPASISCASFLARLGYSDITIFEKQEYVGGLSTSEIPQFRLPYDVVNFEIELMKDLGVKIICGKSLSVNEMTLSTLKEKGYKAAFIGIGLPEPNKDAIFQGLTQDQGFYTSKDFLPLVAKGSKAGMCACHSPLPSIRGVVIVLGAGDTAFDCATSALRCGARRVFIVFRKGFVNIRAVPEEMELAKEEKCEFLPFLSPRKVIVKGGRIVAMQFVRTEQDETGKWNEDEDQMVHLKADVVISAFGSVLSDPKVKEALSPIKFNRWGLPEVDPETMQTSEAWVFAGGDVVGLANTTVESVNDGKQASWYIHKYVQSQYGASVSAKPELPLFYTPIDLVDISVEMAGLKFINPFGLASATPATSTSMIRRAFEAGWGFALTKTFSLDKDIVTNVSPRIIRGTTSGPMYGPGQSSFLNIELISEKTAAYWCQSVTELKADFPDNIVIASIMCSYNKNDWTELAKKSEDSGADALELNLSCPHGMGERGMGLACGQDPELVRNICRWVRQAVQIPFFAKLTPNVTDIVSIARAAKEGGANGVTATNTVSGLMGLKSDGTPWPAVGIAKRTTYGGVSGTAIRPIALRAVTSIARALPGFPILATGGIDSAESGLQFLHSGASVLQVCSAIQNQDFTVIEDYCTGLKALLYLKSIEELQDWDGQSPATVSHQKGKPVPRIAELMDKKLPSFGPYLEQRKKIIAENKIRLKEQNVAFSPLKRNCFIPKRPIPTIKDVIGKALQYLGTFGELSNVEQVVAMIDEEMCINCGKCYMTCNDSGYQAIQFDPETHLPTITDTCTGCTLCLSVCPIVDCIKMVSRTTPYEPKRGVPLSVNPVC

[3] = human, in vivo; remark: listed apart in the source
Experimental: 40 mg of PCS6422 was administered to the subjects on both of day 1 and day 5 (Cohort 2B) or on only day 1 (Cohort 2D). Subsequently, 75 mg of capecitabine was administered to the subjects twice daily (morning and night) on days 2-8 followed by 6 days of a drug-free period (days 9-14).
Blood samples for PK analysis of PCS6422 and its major metabolite, 5-acetyluracil in Cycle 1 on Day 1 was drawn at 0 (pre-dose), 1, 2, 3, 5, 7, 9 and 24 hours. The 24-hour post dose sample was collected prior to capecitabine administration on Day 2.
On the first day of capecitabine treatment (Cycle 1, Day 2), blood samples for PK analysis of capecitabine, 5-fluorouracil (5-FU), and the quantifiable main metabolites, α-fluoro-β-alanine (FBAL), 5′-deoxy-5-fluorocytidine (5′-DFCR), and doxifluridine (5′-DFUR) were obtained at the following time points relative to administration of the first dose of capecitabine […]: 0 (pre-dose), 0.5, 1, 2, 3, 5, 7, and 9 hours. In Cycle 1 on Day 8, blood samples were obtained at the following time points relative to administration of the morning dose of capecitabine at time 0 (pre-dose/trough), 0.5, 1, 2, 3, 5, 7, and 9 hours.
Additional PK blood samples for capecitabine and its main metabolites were obtained prior to administration of the morning dose of capecitabine on Days 3, 4, 5, 6, 7, 9. Validated analytical methods were used to determine the concentrations of PCS6422, 5-aceyluracil, capecitabine, 5-FU, FBAL, 5′-DFCR, and 5′-DFUR in plasma.

[4] = laboratory animals; cited from earlier work
[5] = target: T1, dihydropyrimidine dehydrogenase (DPD); conditions: background statement; cited from earlier work

5FU D 8 0-9 hrs Cp Low [1]: <2 ng/mL | 5FU D 8 Cmin [1]: <2 ng/mL | 5FU D 9 [1]: <2 ng/mL | highest 5-FU plasma concentration (Cp high) during 0-9 hours following capecitabine dosing [1]: 309 to 466 ng/mL | lowest 5-FU plasma concentration (Cp low) during 0-9 hours following capecitabine dosing [1]: 8.1 to 164 ng/mL | highest 5-FU plasma concentration (Cp high) during 0-9 hours following capecitabine dosing [3]: 197 to 746 ng/mL | lowest 5-FU plasma concentration (Cp low) during 0-9 hours following capecitabine dosing [3]: 6.4 to 283 ng/mL | 5FU D 9 ([3]; 168 h): <2 ng/mL
SMILES: O=c1[nH]cc(F)c(=O)[nH]1 [5-FU, 5-fluorouracil]
fraction of administered 5-FU catabolized by DPD ([2]; background statement): over 80% | 5-FU elimination half-life ([2]; with DPD inhibited by PCS6422): several hours | 5-FU elimination half-life ([2]; without PCS6422): 10 to 20 min

SMILES: NCC(F)C(=O)O (stereo not drawn) [FBAL, α-fluoro-β-alanine]
FBAL Cp high on Day 2 (0-9 hours post capecitabine dose) [1]: 15 to 26 ng/mL | FBAL Cp low on Day 2 (0-9 hours post capecitabine dose) [1]: 15 to 22.6 ng/mL | effect on anti-tumor activity of 5-FU [4]: decrease the anti-tumor activity of 5-FU | FBAL Cp high on Day 2 (0-9 hours post capecitabine dose) [3]: 15 to 33.1 ng/mL

SMILES: C#Cc1c[nH]c(=O)[nH]c1=O [PCS6422, 5-ethynyl-1H-pyrimidine-2,4-dione]
inactivation of DPD [5]: potent and irreversible inactivator

Source: patent publication US20250017931A1, “METHODS OF PERSONALIZING CANCER TREATMENT” (PROCESSA PHARMACEUTICALS, INC.,, priority 2023, published 2025)
